#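 Assay format: 96-well plates, 48-hour exposure. TGI: total growth inhibition.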
# Tested on: HOP-62 NSCLC
# Test: inhibition of tumour cell growth, NCI panel, 48 h
row,Compound,TGI [µM]
1,COC(=O)c1c(C)cc(OC)c(C/C=C(\C)CCCc2coc(C=C(C)C)c2)c1OC,> 100
2,Cc1cc(OP2(=O)NCc3ncccc3O2)ccc1Cl (stereo not given),> 100
3,O=C(O)c1cccc(S(=O)(=O)NN2C(=O)CSC2c2ccc(Cl)cc2Cl)c1 (stereo not given),> 100

# Tested on: HOP-92 NSCLC
# Test: inhibition of tumour cell growth, NCI panel, 48 h
row,Compound,TGI [µM]
1,CC(C)Oc1cccc(N2C(=NCc3c[nH]c4ccccc34)Nc3ccncc3S2(=O)=O)c1,56.6
2,COC(=O)c1c(C)cc(OC)c(C/C=C(\C)CCCc2coc(C=C(C)C)c2)c1OC,> 100
3,Cc1cc(OP2(=O)NCc3ncccc3O2)ccc1Cl (stereo not given),> 100
4,O=C(O)c1cccc(S(=O)(=O)NN2C(=O)CSC2c2ccc(Cl)cc2Cl)c1 (stereo not given),> 100

# Tested on: HS 578T breast
# Test: inhibition of tumour cell growth, NCI panel, 48 h
row,Compound,TGI [µM]
1,CC(C)Oc1cccc(N2C(=NCc3c[nH]c4ccccc34)Nc3ccncc3S2(=O)=O)c1,81.6
2,COC(=O)c1c(C)cc(OC)c(C/C=C(\C)CCCc2coc(C=C(C)C)c2)c1OC,79.7
3,O=C(O)c1cccc(S(=O)(=O)NN2C(=O)CSC2c2ccc(Cl)cc2Cl)c1 (stereo not given),58.4

# Tested on: HT29 colon
# Test: inhibition of tumour cell growth, NCI panel, 48 h
row,Compound,TGI [µM]
1,CC(C)Oc1cccc(N2C(=NCc3c[nH]c4ccccc34)Nc3ccncc3S2(=O)=O)c1,> 100
2,COC(=O)c1c(C)cc(OC)c(C/C=C(\C)CCCc2coc(C=C(C)C)c2)c1OC,> 100
3,O=C(O)c1cccc(S(=O)(=O)NN2C(=O)CSC2c2ccc(Cl)cc2Cl)c1 (stereo not given),> 100

# Tested on: IGROV1 ovarian
# Test: inhibition of tumour cell growth, NCI panel, 48 h
row,Compound,TGI [µM]
1,CC(C)Oc1cccc(N2C(=NCc3c[nH]c4ccccc34)Nc3ccncc3S2(=O)=O)c1,> 100
2,COC(=O)c1c(C)cc(OC)c(C/C=C(\C)CCCc2coc(C=C(C)C)c2)c1OC,> 100
3,Cc1cc(OP2(=O)NCc3ncccc3O2)ccc1Cl (stereo not given),> 100
4,O=C(O)c1cccc(S(=O)(=O)NN2C(=O)CSC2c2ccc(Cl)cc2Cl)c1 (stereo not given),> 100

# Tested on: K-562 leukemia
# Test: inhibition of tumour cell growth, NCI panel, 48 h
row,Compound,TGI [µM]
1,CC(C)Oc1cccc(N2C(=NCc3c[nH]c4ccccc34)Nc3ccncc3S2(=O)=O)c1,> 100
2,COC(=O)c1c(C)cc(OC)c(C/C=C(\C)CCCc2coc(C=C(C)C)c2)c1OC,> 100
3,Cc1cc(OP2(=O)NCc3ncccc3O2)ccc1Cl (stereo not given),> 100
4,O=C(O)c1cccc(S(=O)(=O)NN2C(=O)CSC2c2ccc(Cl)cc2Cl)c1 (stereo not given),> 100

# Tested on: KM12 colon
# Test: inhibition of tumour cell growth, NCI panel, 48 h
row,Compound,TGI [µM]
1,CC(C)Oc1cccc(N2C(=NCc3c[nH]c4ccccc34)Nc3ccncc3S2(=O)=O)c1,> 100
2,COC(=O)c1c(C)cc(OC)c(C/C=C(\C)CCCc2coc(C=C(C)C)c2)c1OC,> 100
3,Cc1cc(OP2(=O)NCc3ncccc3O2)ccc1Cl (stereo not given),> 100
4,O=C(O)c1cccc(S(=O)(=O)NN2C(=O)CSC2c2ccc(Cl)cc2Cl)c1 (stereo not given),> 100

# Tested on: LOX IMVI melanoma
# Test: inhibition of tumour cell growth, NCI panel, 48 h
row,Compound,TGI [µM]
1,CC(C)Oc1cccc(N2C(=NCc3c[nH]c4ccccc34)Nc3ccncc3S2(=O)=O)c1,> 100
2,COC(=O)c1c(C)cc(OC)c(C/C=C(\C)CCCc2coc(C=C(C)C)c2)c1OC,> 100
3,Cc1cc(OP2(=O)NCc3ncccc3O2)ccc1Cl (stereo not given),> 100
4,O=C(O)c1cccc(S(=O)(=O)NN2C(=O)CSC2c2ccc(Cl)cc2Cl)c1 (stereo not given),> 100

# Tested on: M14 melanoma
# Test: inhibition of tumour cell growth, NCI panel, 48 h
row,Compound,TGI [µM]
1,CC(C)Oc1cccc(N2C(=NCc3c[nH]c4ccccc34)Nc3ccncc3S2(=O)=O)c1,62.6
2,COC(=O)c1c(C)cc(OC)c(C/C=C(\C)CCCc2coc(C=C(C)C)c2)c1OC,> 100
3,Cc1cc(OP2(=O)NCc3ncccc3O2)ccc1Cl (stereo not given),> 100
4,O=C(O)c1cccc(S(=O)(=O)NN2C(=O)CSC2c2ccc(Cl)cc2Cl)c1 (stereo not given),> 100

# Tested on: MALME-3M melanoma
# Test: inhibition of tumour cell growth, NCI panel, 48 h
row,Compound,TGI [µM]
1,CC(C)Oc1cccc(N2C(=NCc3c[nH]c4ccccc34)Nc3ccncc3S2(=O)=O)c1,58.8
2,O=C(O)c1cccc(S(=O)(=O)NN2C(=O)CSC2c2ccc(Cl)cc2Cl)c1 (stereo not given),> 100

# Tested on: MCF7 breast
# Test: inhibition of tumour cell growth, NCI panel, 48 h
row,Compound,TGI [µM]
1,CC(C)Oc1cccc(N2C(=NCc3c[nH]c4ccccc34)Nc3ccncc3S2(=O)=O)c1,> 100
2,COC(=O)c1c(C)cc(OC)c(C/C=C(\C)CCCc2coc(C=C(C)C)c2)c1OC,> 100
3,Cc1cc(OP2(=O)NCc3ncccc3O2)ccc1Cl (stereo not given),> 100
4,O=C(O)c1cccc(S(=O)(=O)NN2C(=O)CSC2c2ccc(Cl)cc2Cl)c1 (stereo not given),> 100

# Tested on: MDA-MB-231 breast
# Test: inhibition of tumour cell growth, NCI panel, 48 h
row,Compound,TGI [µM]
1,COC(=O)c1c(C)cc(OC)c(C/C=C(\C)CCCc2coc(C=C(C)C)c2)c1OC,> 100
2,Cc1cc(OP2(=O)NCc3ncccc3O2)ccc1Cl (stereo not given),> 100
3,O=C(O)c1cccc(S(=O)(=O)NN2C(=O)CSC2c2ccc(Cl)cc2Cl)c1 (stereo not given),> 100

# Tested on: MDA-MB-435
# Test: inhibition of tumour cell growth, NCI panel, 48 h
row,Compound,TGI [µM]
1,CC(C)Oc1cccc(N2C(=NCc3c[nH]c4ccccc34)Nc3ccncc3S2(=O)=O)c1,> 100
2,COC(=O)c1c(C)cc(OC)c(C/C=C(\C)CCCc2coc(C=C(C)C)c2)c1OC,> 100
3,Cc1cc(OP2(=O)NCc3ncccc3O2)ccc1Cl (stereo not given),> 100
4,O=C(O)c1cccc(S(=O)(=O)NN2C(=O)CSC2c2ccc(Cl)cc2Cl)c1 (stereo not given),47

# Tested on: MDA-N
# Test: inhibition of tumour cell growth, NCI panel, 48 h
row,Compound,TGI [µM]
1,CC(C)Oc1cccc(N2C(=NCc3c[nH]c4ccccc34)Nc3ccncc3S2(=O)=O)c1,> 100
2,COC(=O)c1c(C)cc(OC)c(C/C=C(\C)CCCc2coc(C=C(C)C)c2)c1OC,> 100
3,Cc1cc(OP2(=O)NCc3ncccc3O2)ccc1Cl (stereo not given),> 100
4,O=C(O)c1cccc(S(=O)(=O)NN2C(=O)CSC2c2ccc(Cl)cc2Cl)c1 (stereo not given),> 100

# Tested on: MOLT-4 leukemia
# Test: inhibition of tumour cell growth, NCI panel, 48 h
row,Compound,TGI [µM]
1,CC(C)Oc1cccc(N2C(=NCc3c[nH]c4ccccc34)Nc3ccncc3S2(=O)=O)c1,96.7
2,COC(=O)c1c(C)cc(OC)c(C/C=C(\C)CCCc2coc(C=C(C)C)c2)c1OC,> 100
3,Cc1cc(OP2(=O)NCc3ncccc3O2)ccc1Cl (stereo not given),> 100
4,O=C(O)c1cccc(S(=O)(=O)NN2C(=O)CSC2c2ccc(Cl)cc2Cl)c1 (stereo not given),> 100

# Tested on: NCI-H226 lung
# Test: inhibition of tumour cell growth, NCI panel, 48 h
row,Compound,TGI [µM]
1,CC(C)Oc1cccc(N2C(=NCc3c[nH]c4ccccc34)Nc3ccncc3S2(=O)=O)c1,> 100
